Where two headings read alike, the source gives them in different places.
Tests used:
Assay in all cases: MIC of scopularin, agar dilution assay (K-10 agar)
Type in all cases: cell-based
Candida tropicalis = system: Candida tropicalis
Description: (§1) The following methodology was used to determine the miniumum inhibitory concentration (hereinafter referred to as MIC) of scopularin.
(§2) The aerobic test organisms were grown in approximately 15-20ml of Antibiotic Assay Broth (Difco) by inoculating (in tubes) the broth with a loopful of the organism from a BHI (Difco) agar slant. The inoculated tubes were incubated at 37° C. for 18 to 24 hours. These cultures are assumed to contain 10^7 colony forming units (CFU) per ml and the cultures were diluted 1:100 to give a final inoculum level of 10^5 CFU; dilutions were made with Yeast Beef Broth (Difco).
(§3) Scopularin was dissolved in an appropriate diluent at a concentration of 1,000 μg/ml. Two-fold dilutions were made in Yeast Beef Broth (Difco), resulting in a range from 1000 µg/ml to 0.5 μg/ml. 1.5 ml of each dilution was placed into individual petri dishes to which 13.5ml of K-10 agar was added. The composition of K-10 agar is:
(§4) The final drug concentration in the agar ranged from 100 μg/ml to 0.05 μg/ml. Organism growth control plates containing agar only were prepared and inoculated before and after the test plates. The organisms were applied to the agar surface of each plate with a Denly Multipoint Inoculator (which delivers approximately 0.001 ml of each organism) resulting in a final inoculum of 10^4 CFU on the agar surface.
(§5) The plates were incubated at 37° C. for 18 hours and the MICs determined. The MIC is the lowest concentration of compound inhibiting growth of the organism.

Candida pseudotropicalis = conditions: Kluyveromyces marxianus, SC11, 18 h; Candida pseudotropicalis SC 11,241
Description: as §1, §2, §3, §4, §5

Candida guilliermondii = conditions: Meyerozyma guilliermondii
Description: as §1, §2, §3, §4, §5

Epidermophyton floccosum = conditions: SC9185, 18 h; Epidermophyton floccosum SC 9185
Description: as §1, §2, §3, §4, §5

Candida stellatoidea = conditions: Candida albicans, SC2211, 18 h; Candida stellatoidea SC 2211
Description: as §1, §2, §3, §4, §5

Candida krusei = conditions: Pichia kudriavzevii
Description: as §1, §2, §3, §4, §5

Candida glabrata = conditions: Nakaseomyces glabratus, SC11, 18 h; Candida glabrata SC 11,267
Description: as §1, §2, §3, §4, §5

Candida parakrusei = system: Candida parakrusei
Description: as §1, §2, §3, §4, §5

Microsporum canis = conditions: SC9237, 18 h; Microsporum canis SC 9237
Description: as §1, §2, §3, §4, §5

[1] = system: Trichophyton mentagrophytes; conditions: SC2637, 18 h; Trichophyton mentagrophytes SC 2637
Description: as §1, §2, §3, §4, §5

Candida albicans = system: Candida albicans
Description: as §1, §2, §3, §4, §5

Aspergillus fumigatus = conditions: SC2100, 18 h; Aspergillus fumigatus SC 2100
Description: as §1, §2, §3, §4, §5

Trichophyton rubrum = conditions: SC9199, 18 h; Trichophyton rubrum SC 9199
Description: as §1, §2, §3, §4, §5

## CCC/C=C/C=C/C=C(\C)[C@H]1OC[C@@H](C)[C@@H](OC)[C@@H]1OC(=O)CN (relative stereo) [Scopularin, (2α, 3β, 4α, 5α)-Tetrahydro-4-methoxy-5-methyl-2-(1-methyl-1,3,5-nonatrienyl)-2H-pyran-3-ol, aminoacetate ester]
Candida tropicalis; SC10, 18 h, Candida tropicalis SC 10,597
  MIC: 25 µg/mL
Candida tropicalis; SC2963, 18 h, Candida tropicalis SC 2963 (AmphoB^R)
  MIC: 6.3 µg/mL
Candida tropicalis; SC8159, 18 h, Candida tropicalis SC 8159
  MIC: 25 µg/mL
Candida tropicalis; SC9861, 18 h, Candida tropicalis SC 9861 (AmphoB^R)
  MIC: 25 µg/mL
Candida pseudotropicalis
  MIC: 25 µg/mL
Candida guilliermondii; SC2210, 18 h, Candida guilliermondii SC 2210
  MIC: 12.5 µg/mL
Candida guilliermondii; SC2996, 18 h, Candida guilliermondii SC 2996
  MIC: 0.4 µg/mL
Epidermophyton floccosum
  MIC: 0.2 µg/mL
Candida stellatoidea
  MIC: 25 µg/mL
Candida krusei; SC2967, 18 h
  MIC: 0.4 µg/mL
Candida krusei; SC2968, 18 h, Candida krusei SC 2968, read-out: MIC
  MIC: 1.6 µg/mL
Candida krusei; SC2969, 18 h, Candida krusei SC 2969, read-out: MIC
  MIC: 1.6 µg/mL
Candida glabrata
  MIC: 25 µg/mL
Candida parakrusei; SC2621, 18 h, Candida parakrusei SC 2621
  MIC: 0.8 µg/mL
Candida parakrusei; SC2966, 18 h, Candida parakrusei SC 2966
  MIC: 1.6 µg/mL
Microsporum canis
  MIC: 0.4 µg/mL
[1]
  MIC: 0.2 µg/mL
Candida albicans; SC10, 18 h, Candida albicans SC 10,102
  MIC: 100 µg/mL
Candida albicans; SC10, 18 h, Candida albicans SC 10,580
  MIC: 50 µg/mL
Candida albicans; SC10, 18 h, Candida albicans SC 10,584
  MIC: 25 µg/mL
Candida albicans; SC10, 18 h, Candida albicans SC 10,585
  MIC: 50 µg/mL
Candida albicans; SC11, 18 h, Candida albicans SC 11,422
  MIC: 50 µg/mL
Candida albicans; SC12, 18 h, Candida albicans SC 12,734 (Bacilysin^R)
  MIC: 100 µg/mL
Candida albicans; SC14, 18 h, Candida albicans SC 14,021 (Aculeacin^R)
  MIC: 50 µg/mL
Candida albicans; SC5314, 18 h, Candida albicans SC 5314
  MIC: 50 µg/mL
Candida albicans; SC9177, 18 h, Candida albicans SC 9177
  MIC: 50 µg/mL
Candida albicans; SC9721, 18 h, Candida albicans SC 9721
  MIC: 50 µg/mL
Aspergillus fumigatus
  MIC: 50 µg/mL
Trichophyton rubrum
  MIC: 0.4 µg/mL
